Test system: Human umbilical cord endothelial cells
Type: cell-based
Source text: The toxicity of each component is checked on Human cell lines (Human umbilical cord endothelial cells).

Structure (SMILES) | human cell growth (treatment with as much as 250 μg/mL) [%] | toxicity (Human umbilical cord endothelial cells) | proliferation of cells (at as low as 1 μM concentration)
O=C(O)c1cc(O)c(O)c(O)c1 [Gallic acid] | 100 | – | –
CCCCCCCCCCCCC/C=C/[C@@H](O)[C@@H](N)COP(=O)(O)O [Sphingosine-1-phosphate, Sphingosine-1-Phosphate] | – | not toxic | proliferative
